Structures are written as SMILES.

For this experiment, the system named is D2 receptor. The experiment is described as follows: Binding to cloned D2 receptors ([125I]-iodosulpride displacement). The note with it: reference aminotetralines. The procedure:
Pharmacological study STUDIES OF THE BINDING OF THE COMPOUNDS OF THE INVENTION TO D2 AND D3 RECEPTORS
The results are expressed in the form of pKi (pKi =-logKi).
The Ki value is derived from the formula Ki =IC50 /(1+L/KD), where L is the concentration of [^125 I]-iodosulpride used in the experiment and Kd its dissociation constant.
The IC50, which represents the concentration that gives a 50% inhibition of the binding of the radioligand, is calculated by non-linear regression (Simplex method).

Consider `CCCN[C@@H]1CCc2c(OC)cccc2[C@@H]1C` [(+) AJ 76], for which the “selectivity (D3 versus D2)” value came to 2.

On to `CCCN(CCC)[C@@H]1CCc2c(OC)cccc2[C@@H]1C` [(+) UH 232], for which the “selectivity (D3 versus D2)” value is on record as 5.

(Values after patent US5726208A, “Heterocyclic tertiary amines” (Adir et Compagnie, priority 1995, dated 1998).)
